Here are results for 7 compounds from US4732986A, “Benzothiazole derivatives, processes for their preparation and pharmaceutical compositions containing these compounds” (Ludwig Heumann & Co. GmbH, priority 1984, dated 1988).

In test [1] the test system is acute inflammatory oedema of the paws. As to the kind of experiment: Rat's paw oedema test (carrageenin), inhibition of the increase in paw volume. The test is classed as in vivo. To be noted: po, 1 h, male rats, intragastral, one hour after carrageenin. How it is done:
An acute inflammatory oedema of the paws was induced in male rats (100-120 g) by subplantar injection of 0.1 ml of 2% carrageenin (dissolved in aqueous 0.9% NaCl solution). The volume of the paws was measured with a volumetric paw measuring apparatus 1 hour and 4 hours after the carrageenin injection. The differences between the two measurements of the paws was calculated. The test substances were suspended in 1% tylose and administered intragastrally through a stomach tube one hour after the carrageenin injection. The control animals were only given the vehicle (1% tylose). The percentage inhibition of the increase in volume in the treated animals was obtained by a comparison with the untreated controls. The average inhibitory doses (ED50) were calculated by means of the regression curves.

Test [2] has as its system leucocyte migration. As to the kind of experiment: Leucocyte migration test (carrageenin-impregnated polyester sponge). The format is in vivo. To be noted: male rats, 50 mg/kg i.g., given immediately after sponge implantation and after 5 and 21 hours. How it is done:
2. Leucocyte migration test
A polyester sponge impregnated with 2% carrageenin solution was implanted subcutaneously in the neck region in male rats (140-150 g) (see G. A. Higgs et al, Eur. J. Pharmacol. 66, 81 (1980), A. W. Ford-Hutchinson et al, J. Pharmacol. Methods 1, 3 (1978)). The sponges were removed after 24 hours. The leucocytes which had migrated in were washed out in a PBS solution (pH 7.4, 0.5% trypsin, 10 units/ml of heparin) at 37° C. for 30 minutes.
The sponges were then carefully pressed out and centrifuged (10 minutes, 500 revs/min). The leucocytes in the washing liquid were then counted. The test substances, which were taken up in 1% tylose, and the vehicle (1% tylose) were administered intragastrally with a stomach tube immediately after implantation of the sponge and after 5 hours and 21 hours. The percentage inhibition of leucocyte migration after administration of the test substances was compared with that of the controls. The average inhibitory doses (ED50) were calculated by means of the regression graphs.

In test [3] the test system is PGE 2-synthesis and -release (cyclooxygenase). As to the kind of experiment: Inhibition of PGE 2-synthesis and -release in vitro. The test is classed as cell-based. The source says:
(§1) 3. Inhibition of PGE 2- and LTC 4-synthesis and -release

Test [4] concerns LTC 4-synthesis and -release (lipoxygenase). As to the kind of experiment: Inhibition of LTC 4-synthesis and -release in vitro. The test is classed as cell-based.
Excerpt: as §1

A value given as a limit tells only on which side of the number the result lay.

`CN(C)C=NNc1nc2ccccc2s1` [Example 1, N^1-(benzothiazol-2-yl)-N^3,N^3-dimethylformamidrazone] came in with an ED50 in test [1] of 14 mg/kg. For the same compound, in test [2], the “Inhibition of leucocyte migration (control = 0%)” value (from here on “Inhibition … (control = 0%)”) is recorded as 25%. Besides, the “PGE2 (% of controls)” value in test [3] (at 10^-4) is recorded as 29 % of controls; in test [3] (at 10^-5), 84 % of controls; in test [3] (at 10^-6), 99 % of controls. Besides, the “cyclooxygenase inhibition (in words)” value in test [3] (conclusion from PGE2 test) is “cyclooxygenase inhibitor”. The “LTC4 (% of controls)” value in test [4] (at 10^-4) is given as 51 % of controls; in test [4] (at 10^-5) it was > 100 % of controls; in test [4] (at 10^-6) it was > 100 % of controls. Besides, the “lipoxygenase inhibition (in words)” value in test [4] (at 10^-4, conclusion from LTC4 test) is recorded as “lipoxygenase inhibition at 10^-4”.

Consider `CN(C)C=NN(C)c1nc2ccccc2s1` [Example 2, N^1-(benzothiazol-2-yl)-N^1,N^3,N^3-trimethylformamidrazone], for which the ED50 in test [1] amounted to 15 mg/kg.

On to `CN(NC=O)c1nc2ccccc2s1` [Example 4, N^2-(benzothiazol-2-yl)-N^2-methyl-formhydrazide], for which the ED50 in test [1] was 50 mg/kg. Also, the “Inhibition … (control = 0%)” value in test [2] was determined as 50%.

As to `CCOC(C)=NNc1nc2ccccc2s1` [Example 5, N^2-(benzothiazol-2-yl)-ethyl-acetohydrazonate], in test [1], the ED50 was 25 mg/kg. Further, in test [2], the “Inhibition … (control = 0%)” value stood at 30%.

In turn, `CC(=O)NNc1nc2ccc(C)cc2s1` [Example 6, N^2-(6-methylbenzothiazol-2-yl)-acetohydrazide] registered an ED50 in test [1] of 50 mg/kg.

Take `CC=NNc1nc2ccc(C)cc2s1` [Example 7, N-(6-methylbenzothiazol-2-yl)acetaldehydehydrazone]: it took a dose of 25 mg/kg to reach the 50% effect level in test [1] (ED50).

Compound `CC=NNc1nc2cc(Cl)ccc2s1` [Example 8] returned an ED50 in test [1] of around 80 mg/kg.

What is called ED50 is the midpoint of the dose-response relation.
